Source: US20050137175A1, “Use of ecdysteroids for preparing dermatological or cosmetological anti-hair loss compositions” (L'OREAL, priority 2003, published 2005)

Tests used:
human hair follicle = assay: Human hair follicle survival in vitro model; assay type: cell-based
Procedure: We had developed and patented a model for a surviving human follicle in vitro (FR 95-08465) making it possible to evaluate the effect of a substance on follicle survival and extension. We used this in vitro model for evaluating the effect of ecdysterone on hair follicle growth and survival. Various concentrations of this substance were tested: 0.01 μg/ml, 0.1 μg/ml, 1 μg/ml and 10 μg/ml.

hair follicle = assay: Maintenance of hair follicle integrity in vitro (antibody labelling of compartment markers Ki67, keratin K14, transglutaminase, keratin hHa5); assay type: cell-based, human; conditions: 14 days of culture, ecdysterone 0.01 μg/ml, compared with reference follicle at D=0
Source text: In order to characterize more fully the effect of this substance on the hair follicle, we monitored the mitotic activity of the bulb cells and also the various specific differentiation programmes of the outer sheath, of the inner sheath and of the pilar shaft, in the presence or absence of this substance.
The integrity of the follicle compartments after 14 days of culture was thus monitored by means of antibodies that recognize markers specific for each of these compartments: the mitosis marker Ki67, specific for the matrix (S. Commo & B. A. Bernard, 1997, Br. J. Dermatol. 137: 31-38); keratin K14, specific for the outer sheath (ibid.); transglutaminase, specific for the inner sheath (ibid.); and keratin hHa5, specific for the pillar shaft, and in particular the keratogenic zone and the cuticle (L. Langbein et al., 1999, J. Biol. Chem. 274: 19874-19884).

C3H murine model = conditions: cited from earlier work

CC(C)(O)CC[C@@H](O)[C@](C)(O)[C@H]1CC[C@@]2(O)C3=CC(=O)[C@@H]4C[C@@H](O)[C@@H](O)C[C@]4(C)[C@H]3CC[C@]12C [ecdysterone]
human hair follicle survival in vitro (human hair follicle; ecdysterone 0.01 μg/ml): significantly increases human hair follicle survival | human hair follicle survival in vitro (human hair follicle; ecdysterone 0.1 μg/ml): significantly increases human hair follicle survival | human hair follicle survival in vitro (human hair follicle; ecdysterone 10 μg/ml): significantly increases human hair follicle survival | expression of follicle compartment markers (Ki67, keratin K14, transglutaminase, keratin hHa5) (hair follicle): all the markers studied conserve an expression that is comparable to that of the reference follicle at D=0 | hair regrowth (C3H murine model): stimulate hair regrowth
